The inhibition is the change of the read-out against control, counted positive when it falls. Higher therefore signals a response far below the control. As a reminder, the IC50 is the midpoint of a concentration-inhibition curve. A word on the minimal effective dose: it is the smallest amount tested that counted as effective.

The target of data set [1] is T1, hERG (Homo sapiens, UniProt Q12809). Put plainly: in vitro. The settings on record: pH 7.4, hERG inhibition rate (%) (1 μM). (In general: hERG is a cardiac potassium channel; its block is linked to QT prolongation.)
T1 sequence (Q12809 whole entry): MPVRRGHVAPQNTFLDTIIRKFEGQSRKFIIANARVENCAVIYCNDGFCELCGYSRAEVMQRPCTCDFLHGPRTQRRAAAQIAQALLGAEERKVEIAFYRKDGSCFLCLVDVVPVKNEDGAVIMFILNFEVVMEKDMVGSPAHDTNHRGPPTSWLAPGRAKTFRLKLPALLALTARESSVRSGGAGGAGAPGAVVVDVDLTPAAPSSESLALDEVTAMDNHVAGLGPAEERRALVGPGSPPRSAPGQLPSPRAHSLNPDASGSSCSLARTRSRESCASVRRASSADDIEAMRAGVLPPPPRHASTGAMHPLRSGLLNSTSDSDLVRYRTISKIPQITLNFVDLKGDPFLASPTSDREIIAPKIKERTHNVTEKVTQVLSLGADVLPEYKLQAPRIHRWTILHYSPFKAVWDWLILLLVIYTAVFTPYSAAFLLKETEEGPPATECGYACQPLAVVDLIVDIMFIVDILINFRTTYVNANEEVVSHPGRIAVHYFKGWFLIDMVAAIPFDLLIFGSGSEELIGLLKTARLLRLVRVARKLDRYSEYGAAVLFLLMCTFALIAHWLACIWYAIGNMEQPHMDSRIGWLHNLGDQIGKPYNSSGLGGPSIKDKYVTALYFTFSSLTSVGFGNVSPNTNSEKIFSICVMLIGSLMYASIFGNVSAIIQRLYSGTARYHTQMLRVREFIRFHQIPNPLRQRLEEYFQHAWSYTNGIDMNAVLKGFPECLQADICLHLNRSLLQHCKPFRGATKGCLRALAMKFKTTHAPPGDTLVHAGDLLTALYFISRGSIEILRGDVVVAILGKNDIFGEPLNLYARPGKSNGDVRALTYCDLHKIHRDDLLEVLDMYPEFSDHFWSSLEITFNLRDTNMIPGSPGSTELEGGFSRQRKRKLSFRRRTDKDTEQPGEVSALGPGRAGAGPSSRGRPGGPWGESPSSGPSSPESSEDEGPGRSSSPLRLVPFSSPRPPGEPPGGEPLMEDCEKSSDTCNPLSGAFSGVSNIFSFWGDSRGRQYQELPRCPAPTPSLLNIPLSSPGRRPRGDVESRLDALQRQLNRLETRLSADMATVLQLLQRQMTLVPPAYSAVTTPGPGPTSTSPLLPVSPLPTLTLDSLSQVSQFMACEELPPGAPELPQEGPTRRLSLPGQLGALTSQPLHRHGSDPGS
Data set [2] relates to IL-17 production of mouse spleen cells stimulated by rm-IL-23. Put plainly: Production of IL-17 induced when mouse spleen cells were stimulated by recombinant mouse interleukin-23 (rm-IL-23). The settings on record: inhibition of IL-17 production, DBA/1J mouse spleen cells, rm-IL-23 1 nmol/L, ELISA. The class given is cell-based. The method in brief:
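Spleen cells from 6-7 week-old male DBA/1J mice, 2×10^5 cells/well in 10% FCS RPMI1640, cultured 72 h at 37° C with compound (1 to 1,000 nmol/L) plus 1 nmol/L rm-IL-23. IL-17 in supernatant by ELISA; viability by WST-8 absorbance at 450 nm; IC50 by linear regression of inhibition rate.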

The target in data set [3] is T1, hERG. The data set can be described thus: Effects on hERG current (whole-cell clamping). The note with it: human, HEK 293 cells that express hERG, pH 7.4, hERG inhibition rate (%) (1 μM), 1 μM; tail peak current; hERG-expressed HEK 293 cells.
In data set [4] the test system is Type II collagen-induced arthritis in DBA/1J mice. The data set can be described thus: Type II collagen-induced arthritis in DBA/1J mice. The class given is in vivo, mouse. The note with it: dose showing significant inhibitory effect on arthritis, oral, once a day for three weeks from booster immunization; for minimal effective dose: Mus musculus, 504 h. Here is the method:
Effect on Type II Collagen-Induced Arthritis in DBA/1J Mice
An emulsion was prepared by mixing bovine II collagen (100-200 μg purchased from collagen Gijyutsu Kenshuukai) and Freund's complete adjuvant (Sigma Aldrich) containing killed Mycobacterium tuberculosis H37Ra. Arthritis was induced by immunization through subcutaneous administration of the emulsion to the tail of 6-7 week-old male DBA/1J mouse (Charles River Japan, Inc.), followed by booster immunization three weeks later by administration of an emulsion prepared by mixing bovine II collagen with Freund's incomplete adjuvant (Sigma-Aldrich). Test compound was suspended or dissolved in 0.5% carboxymethylcellulose (Sigma-Aldrich) and repeatedly administered orally once a day at a dose of 0.1 to 10 mg/kg body weight using an oralsonde for three weeks from the day of booster immunization. In this model, the symptom of arthritis of the limbs was each evaluated according to the following evaluation criteria of 0 to 4 scores: 0, No change; 1, edema in only one joint; 2, edema in two or more joints, or light edema of the entire limb; 3, severe edema of the entire limb; 4, severe edema of the entire limb and ankylosis and immovability of joint. The score of arthritis of each mouse was expressed as the total of the scores of the limbs (Maximum: 16 points). On the next day of the last administration, soft X-ray photograph of the limbs was taken with soft X-ray equipment (Omic), and the level of joint destruction was evaluated by observation under a microscope. In each finger of the limbs the score of joint destruction was judged as 0 when no joint destruction was found, and as 1 when one or more destruction was found, and the score of joint destruction of a mouse was expressed as the total of scores for each finger of limb (Maximum: 20). The arthritis score and joint destruction score were expressed as the average value and standard error for each group (n=6-8). Only a vehicle was administered in a control group, and statistical analysis was performed by Dunnett's multiple comparison test, in which the case was judged as significant when the p value was less than 0.05.

At hERG [1], `Cc1c(C(=O)Nc2ccc(C3(C#N)CCN([C@H]4CCO[C@H]4C)CC3)nc2)cnn1-c1ccc(C(F)(F)F)cn1` (relative stereo) [Example D8, cis-N-{6-[4-Cyano-1-(2-methyltetrahydrofuran-3-yl)piperidin-4-yl]pyridin-3-yl}-5-methyl-1-[5-(trifluoromethyl)pyridin-2-yl]-1H-pyrazole-4-carboxamide] showed an inhibition at 1 µM of 15.8%. In data set [2] (72 hours), the IC50 is 0.114 µM.
Take `Cc1c(C(=O)Nc2ccc(C3(C#N)CCN([C@H]4CCO[C@H]4C)CC3)nc2)cnn1-c1ccc(C2CC2)cn1` (relative stereo) [Example D10, cis-N-{6-[4-Cyano-1-(2-methyltetrahydrofuran-3-yl)piperidin-4-yl]pyridin-3-yl}-1-(5-cyclopropylpyridin-2-yl)-5-methyl-1H-pyrazole-4-carboxamide]: at 1 µM the inhibition on hERG [1] was 6.7%. In addition, the 50% inhibitory concentration (IC50) in data set [2] (72 hours) is 0.12 µM.
For the compound `CS(=O)(=O)O.Cc1cc(NC(=O)c2cnn(-c3ccc(C(F)(F)F)cn3)c2C)cnc1C1=CCC(N2CCOCC2)CC1` (stereo not drawn) [Example D20, 5-Methyl-N-{5-methyl-6-[4-(morpholin-4-yl)cyclohex-1-en-1-yl]pyridin-3-yl}-1-[5-(trifluoromethyl)pyridin-2-yl]-1H-pyrazole-4-carboxamide mesylate], in data set [2] (Mus musculus, 72 h), the IC50 was 0.0564 µM. On hERG [3], the inhibition at 1 µM was 32.2%. The same compound gave a minimal effective dose in data set [4] of 1 mg/kg.
In the same order, the values of `Cc1c(C(=O)Nc2ccc([C@]3(C#N)CC[C@@H](N4CCOCC4)CC3)nc2)cnn1-c1ccc(C(F)(F)F)cc1` [Example D146] are 0.0466 µM, 47.2% and 0.1 mg/kg.
On to `Cc1c(C(=O)Nc2ccc(C3CCC(=O)CC3)nc2)cnn1-c1ccc(Cl)cc1` [Example E13], for which the concentration for half-maximal inhibition (IC50) in data set [2] (Mus musculus, 72 h) is 0.109 µM. Moreover, the inhibition at 1 µM against hERG [3] was 10.3%. This compound yielded a minimal effective dose in data set [4] of 1 mg/kg.
For the compound `Cc1cc(NC(=O)c2cnn(-c3ccc(C(F)(F)F)cc3)c2C)cnc1C1=CCC(N2CCOCC2)CC1` (stereo not drawn) [Example E24], the minimal effective dose in data set [4] came to 1 mg/kg.
As to `Cc1c(C(=O)Nc2ccc([C@]3(C#N)CC[C@@H](O)CC3)nc2)cnn1-c1ccc(Cl)cc1` [Example G1, 1-(4-Chlorophenyl)-N-[6-(r-1-cyano-c-4-hydroxycyclohexyl)pyridin-3-yl]-5-methyl-1H-pyrazole-4-carboxamide], the half-maximal inhibitory concentration (IC50) in data set [2] (Mus musculus, 72 h) came to 0.118 µM. Also, the inhibition at 1 µM at hERG [3] was determined as 25.8%. The minimal effective dose in data set [4] came to 3 mg/kg.
In the same order, the values of `Cc1c(C(=O)Nc2ccc([C@]3(C#N)CC[C@@H](O)CC3)nc2)cnn1-c1ccc(F)cc1` [Example G2, N-[6-(r-1-cyano-c-4-hydroxycyclohexyl)pyridin-3-yl]-1-(4-fluorophenyl)-5-methyl-1H-pyrazole-4-carboxamide] are 0.194 µM, 15.2% and 1 mg/kg.
`Cc1ccc(-n2ncc(C(=O)Nc3ccc([C@]4(C#N)CC[C@@H](O)CC4)nc3)c2C)cc1` [Example G3, N-[6-(r-1-Cyano-c-4-hydroxycyclohexyl)pyridin-3-yl]-5-methyl-1-(4-methylphenyl)-1H-pyrazole-4-carboxamide]: the concentration for half-maximal inhibition (IC50) in data set [2] (Mus musculus, 72 h) was 0.0918 µM. Besides, the inhibition at 1 µM against hERG [3] was found to be 4.4%. In addition, the minimal effective dose in data set [4] worked out at 1 mg/kg.
In the case of `Cc1c(C(=O)Nc2ccc([C@]3(C#N)CC[C@@H](O)CC3)nc2)cnn1-c1ccc(C(F)(F)F)cc1` [Example G6], the 50% inhibitory concentration (IC50) in data set [2] (Mus musculus, 72 h) was found to be 0.0739 µM. On hERG [3], this compound came in with an inhibition at 1 µM of 26%. In addition, the “Effective Dose” value in data set [4] is reported as 10 mg/kg.
As to `Cc1c(C(=O)Nc2ccc([C@]3(C#N)CC[C@@H](O)CC3)nc2)cnn1-c1ccc(F)cc1F` [Example G7], the half-inhibitory concentration (IC50) in data set [2] (Mus musculus, 72 h) turned out to be 0.198 µM. Also, at hERG [3], the inhibition at 1 µM stood at 5.2%. This compound came in with a minimal effective dose in data set [4] of 0.3 mg/kg.
As for `Cc1c(C(=O)Nc2ccc([C@]3(C#N)CC[C@H](O)CC3)nc2)cnn1-c1ccc(C(F)(F)F)cc1` [Example K2], the minimal effective dose in data set [4] is 10 mg/kg.
On to `CC[C@]1(O)CC[C@](C#N)(c2ccc(NC(=O)c3cnn(-c4ccc(C)cc4)c3C)cn2)CC1` [Example K36, N-[6-(r-1-Cyano-4-ethyl-c-4-hydroxycyclohexan-1-yl)pyridin-3-yl]-5-methyl-1-(4-methylphenyl)-1H-pyrazole-4-carboxamide], for which the IC50 in data set [2] (Mus musculus, 72 h) worked out at 0.124 µM. On hERG [3], this compound registered an inhibition at 1 µM of 8.1%.
The corresponding values for `Cc1c(C(=O)Nc2cnc(C3=CCC(N4CCOCC4)CC3)c(C#N)c2)cnn1-c1ccc(C(F)(F)F)cn1` (stereo not drawn) [Example K38, N-{5-Cyano-6-[4-(morpholin-4-yl)cyclohex-1-en-1-yl]pyridin-3-yl}-5-methyl-1-[5-(trifluoromethyl)pyridin-2-yl]-1H-pyrazole-4-carboxamide] are 0.0581 µM and 44.1%.
In the case of `Cc1cc(NC(=O)c2cnn(-c3ccc(C(F)(F)F)cn3)c2C)cnc1C1=CCN(C(=O)C(C)(C)C)CC1` [Example K41, N-{6-[1-(2,2-Dimethylpropanoyl)-1,2,3,6-tetrahydropyridin-4-yl]-5-methylpyridin-3-yl}-5-methyl-1-[5-(trifluoromethyl)pyridin-2-yl]-1H-pyrazole-4-carboxamide], the IC50 in data set [2] (Mus musculus, 72 h) turned out to be 0.161 µM. For the same compound, 1 µM produced 25.6% inhibition against hERG [3].
For the compound `Cc1cc(NC(=O)c2cnn(-c3ccc(C(F)(F)F)cn3)c2C)cnc1C1=CCN(S(=O)(=O)C(C)C)CC1` [Example K45, 5-Methyl-N-{5-methyl-6-[1-(propane-2-sulfonyl)-1,2,3,6-tetrahydropyridin-4-yl]pyridin-3-yl}-1-[5-(trifluoromethyl)pyridin-2-yl]-1H-pyrazole-4-carboxamide], the IC50 in data set [2] (Mus musculus, 72 h) worked out at 0.0462 µM. Also, on hERG [3], the inhibition at 1 µM stood at 21.1%.
Take `Cc1c(C(=O)Nc2ccc(C3(C#N)CCN(S(=O)(=O)C(C)C)CC3)nc2)cnn1-c1ccc(C(F)(F)F)cn1` [Example K51, N-{6-[4-Cyano-1-(propane-2-sulfonyl)piperidin-4-yl]pyridin-3-yl}-5-methyl-1-[5-(trifluoromethyl)pyridin-2-yl]-1H-pyrazole-4-carboxamide]: the concentration for half-maximal inhibition (IC50) in data set [2] (Mus musculus, 72 h) worked out at 0.0373 µM. In addition, the inhibition at 1 µM at hERG [3] worked out at 43.7%.
The corresponding values for `Cc1cc(NC(=O)c2cnn(-c3ccc(C(F)(F)F)cn3)c2C)cnc1C1=CCN(C(=O)N2CCCC2)CC1` [Example K52, 5-Methyl-N-{5-methyl-1-(pyrrolidin-1-ylcarbonyl)-6-[1,2,3,6-tetrahydropyridin-4-yl]pyridin-3-yl}-1-[5-(trifluoromethyl)pyridin-2-yl]-1H-pyrazole-4-carboxamide] are 0.16 µM and 31.5%.
In the same order, the values of `Cc1cc(NC(=O)c2cnn(-c3ccc(C(F)(F)F)cn3)c2C)cnc1C1CCN(S(=O)(=O)C(C)C)CC1` [Example K55, 5-Methyl-N-{5-methyl-6-[1-(propane-2-sulfonyl)piperidin-4-yl]pyridin-3-yl}-1-[5-(trifluoromethyl)pyridin-2-yl]-1H-pyrazole-4-carboxamide] are 0.0464 µM and 29.5%.
As for `Cc1cc(NC(=O)c2cnn(-c3ccc(C(F)(F)F)cn3)c2C)cnc1C1CCN(C(=O)C(F)(F)F)CC1` [Example K60, 5-Methyl-N-{5-methyl-6-[1-(trifluoroacetyl)piperidin-4-yl]pyridin-3-yl}-1-[5-(trifluoromethyl)pyridin-2-yl]-1H-pyrazole-4-carboxamide], the 50% inhibitory concentration (IC50) in data set [2] (Mus musculus, 72 h) worked out at 0.0472 µM. The same compound registered an inhibition at 1 µM on hERG [3] of 22.8%.
The corresponding values for `Cc1c(C(=O)Nc2cnc(C3=CCC(N(C)C(=O)C(C)(C)C)CC3)cn2)cnn1-c1ccc(C(F)(F)F)cn1` (stereo not drawn) [Example K64, N-(5-{4-[N-(2,2-Dimethylpropion-1-yl)-N-methylamino]cyclohex-1-en-1-yl}pyrazin-2-yl)-5-methyl-1-[5-(trifluoromethyl)pyridin-2-yl]-1H-pyrazole-4-carboxamide] are 0.157 µM and 2.3%.
